In PubChem BioAssay (NCI):
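Growth conditions: 96-well plates. Treatment: test compound, 48 hours, 5 concentrations. Analysis: linear interpolation between bracketing concentrations; unreached endpoints set to highest concentration. TGI denotes the concentration required for complete inhibition of growth.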

What was measured:
Experiment in all cases: inhibition of tumour cell growth, NCI panel, 48 h
[1] = test system: UACC-257 melanoma
[2] = test system: CCRF-CEM leukemia
[3] = test system: HT29 colon
[4] = test system: MALME-3M melanoma
[5] = test system: HS 578T breast
[6] = test system: OVCAR-4 ovarian
[7] = test system: RPMI-8226 leukemia
[8] = test system: A498 renal
[9] = test system: SF-539 CNS
[10] = test system: TK-10 renal
[11] = test system: MDA-MB-231 breast
[12] = test system: SK-OV-3 ovarian
[13] = test system: SK-MEL-5 melanoma
[14] = test system: NCI-H23 lung
[15] = test system: NCI/ADR-RES ovarian
[16] = test system: CAKI-1 renal
[17] = test system: SF-268 CNS
[18] = test system: HOP-92 NSCLC
[19] = test system: PC-3 prostate
[20] = test system: OVCAR-5 ovarian
[21] = test system: UACC-62 melanoma
[22] = test system: COLO 205 colon
[23] = test system: HCT-15 colon
[24] = test system: OVCAR-8 ovarian
[25] = test system: LOX IMVI melanoma
[26] = test system: MDA-N
[27] = test system: NCI-H522 lung
[28] = test system: A549 NSCLC
[29] = test system: SR leukemia
[30] = test system: U251 CNS
[31] = test system: SNB-19 CNS
[32] = test system: UO-31 renal
[33] = test system: SN12C renal
[34] = test system: NCI-H460 lung
[35] = test system: HL-60(TB) leukemia
[36] = test system: EKVX NSCLC
[37] = test system: 786-0 renal
[38] = test system: SW-620 colon
[39] = test system: M14 melanoma
[40] = test system: T-47D breast
[41] = test system: NCI-H226 lung
[42] = test system: HCT-116 colon
[43] = test system: MCF7 breast
[44] = test system: DU-145 prostate
[45] = test system: RXF 393 renal
[46] = test system: MDA-MB-435
[47] = test system: HOP-62 NSCLC
[48] = test system: SK-MEL-28 melanoma
[49] = test system: SNB-75 CNS
[50] = test system: K-562 leukemia
[51] = test system: ACHN renal
[52] = test system: KM12 colon
[53] = test system: HCC-2998 colon
[54] = test system: IGROV1 ovarian
[55] = test system: MOLT-4 leukemia
[56] = test system: SF-295 CNS
[57] = test system: OVCAR-3 ovarian
[58] = test system: SK-MEL-2 melanoma

`CCCCCCCCCc1c(Cl)nc(Cl)nc1Cl` showed a TGI [1] of 34.6 µM, a TGI [2] of 5.79 µM and a TGI [3] of 34 µM. It also gave a TGI [4] of 25.6 µM, a TGI [5] of 58.3 µM and a TGI [6] of 28.9 µM. It also gave a TGI [7] of 37.5 µM, a TGI [8] of 34 µM and a TGI [9] of 32.6 µM. It also gave a TGI [10] of 37.8 µM, a TGI [11] of 25 µM and a TGI [12] of 36.4 µM. The TGI [13] was 25.6 µM, the TGI [14] was 25.7 µM and the TGI [15] was 35.8 µM. The TGI [16] was 12.1 µM, the TGI [17] was 34.6 µM and the TGI [18] was 29.4 µM. The TGI [19] was 29.8 µM, the TGI [20] was 35.9 µM and the TGI [21] was 38.8 µM. For the same molecule, the TGI [22] was 37.7 µM, the TGI [23] was 27.5 µM and the TGI [24] was 32.1 µM. It also gave a TGI [25] of 4.34 µM, a TGI [26] of 32.2 µM and a TGI [27] of 12.1 µM. The TGI [28] was 37.6 µM, the TGI [29] was 7.93 µM and the TGI [30] was 33 µM. For the same molecule, the TGI [31] was 30.8 µM, the TGI [32] was 32.2 µM and the TGI [33] was 26.8 µM. For the same molecule, the TGI [34] was 37.4 µM, the TGI [35] was 18.2 µM and the TGI [36] was 38.2 µM. The TGI [37] was 27.8 µM, the TGI [38] was 26.3 µM and the TGI [39] was 11 µM. It also gave a TGI [40] of 27 µM, a TGI [41] of 20.1 µM and a TGI [42] of 27.9 µM. The TGI [43] was 36.5 µM, the TGI [44] was 31.2 µM and the TGI [45] was 32.3 µM. It also gave a TGI [46] of 26.7 µM, a TGI [47] of 37.5 µM and a TGI [48] of 35.7 µM. It also gave a TGI [49] of 29.6 µM, a TGI [50] of 19.4 µM and a TGI [51] of 33.7 µM. For the same molecule, the TGI [52] was > 65000 nM, the TGI [53] was 8.89 µM and the TGI [54] was 26.6 µM. For the same molecule, the TGI [55] was 5.18 µM, the TGI [56] was 39.3 µM and the TGI [57] was 32 µM.

`CCCCCCCCCCOC1C(C(O)CNCCCN(C)C)OC2OC3(CCCCC3)OC21` (stereo not drawn) gave a TGI [1] of 10.8 µM, a TGI [2] of 3.64 µM and a TGI [3] of 3.12 µM. It also gave a TGI [4] of 3.61 µM, a TGI [5] of 6.53 µM and a TGI [6] of 4.25 µM. The TGI [7] was 4.37 µM, the TGI [10] was 6.55 µM and the TGI [11] was 3.31 µM. The TGI [12] was 13.9 µM, the TGI [13] was 3.34 µM and the TGI [14] was 3.01 µM. The TGI [15] was 8.87 µM, the TGI [16] was 4.21 µM and the TGI [17] was 5.12 µM. The TGI [18] was 5.33 µM, the TGI [19] was 6.7 µM and the TGI [20] was 3.71 µM. It also gave a TGI [21] of 4.53 µM, a TGI [22] of 3.43 µM and a TGI [23] of 3.21 µM. The TGI [24] was 4.18 µM, the TGI [25] was 2.68 µM and the TGI [26] was 3.37 µM. It also gave a TGI [27] of 3.56 µM, a TGI [28] of 11.7 µM and a TGI [29] of 0.739 µM. The TGI [30] was 3.23 µM, the TGI [31] was 3.24 µM and the TGI [32] was 4.45 µM. It also gave a TGI [33] of 5.19 µM, a TGI [34] of 3.44 µM and a TGI [35] of 3.59 µM. The TGI [36] was 7.6 µM, the TGI [37] was 3.37 µM and the TGI [58] was 4 µM. It also gave a TGI [38] of 3.24 µM, a TGI [39] of 3.55 µM and a TGI [40] of 5.42 µM. It also gave a TGI [41] of 36.7 µM, a TGI [42] of 3.53 µM and a TGI [43] of 3.7 µM. The TGI [44] was 9.24 µM, the TGI [45] was 3.7 µM and the TGI [46] was 3.56 µM. The TGI [47] was 4.04 µM, the TGI [48] was 3.1 µM and the TGI [49] was 0.681 µM. For the same molecule, the TGI [50] was 3.47 µM, the TGI [51] was 8.09 µM and the TGI [52] was 2910 nM. For the same molecule, the TGI [53] was 4.46 µM, the TGI [54] was 3.82 µM and the TGI [55] was 3.87 µM. For the same molecule, the TGI [56] was 3.52 µM and the TGI [57] was 3.59 µM.
